We go through four compounds from paper PMC12516379, “Rotamer-Controlled Self-Immolative Linkers Enable Tunable Release of Neurosteroid Oxime Prodrugs” (ACS Medicinal Chemistry Letters, 2025).

The nature of series [1]: Aqueous solubility by visual inspection in acetate buffer (pH 5). To be noted: for solubility: sodium acetate buffer.
Description: For the solubility assessment, acetate buffer (pH 5) was selected as the media of choice to ensure prodrug stability during analysis.
High aqueous solubility was determined by visual inspection of 5 mg solid material in 0.5 mL
sodium acetate buffer solution. This media was selected to ensure stability of prodrugs during
dissolution in 50 mg/mL aqueous media.
A short description of series [2]: Stability in PBS at room temperature via HPLC (UV). Format: physicochemical. To be noted: phosphate-buffered saline (DPBS). Put shortly:
(§1)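 Progesterone prodrugs dissolved at 1 mg/mL in PBS (pH 7.03) or 10 mM acetate buffer (pH 5.0), kept at RT and reinjected over time, HPLC-UV AUC at 254 nm. Percent parent remaining; k from ln(%remaining) vs time, pseudo-first-order t1/2 = 0.693/k; duplicates averaged.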

A short description of series [3]: Formation of progesterone oxime 3 from prodrugs in human plasma at 37 °C over 2 h. Format: in vitro ADME. To be noted: 2 h period. The method, then: Given the greater biological relevance of plasma, we focused on quantifying the formation of progesterone and allopregnanolone oxime in human plasma at 37 °C over a 2 h period. Results for selected progesterone prodrugs are presented in Figure A–C, illustrating the broad range of plasma cleavage rates as a function of promoiety design (see Figure S13 in Supporting Information for complete data set). Complete stability data for synthesized allopregnanolone prodrugs (Figures S18–S20) are provided in the Supporting Information. Given that their trends closely paralleled the progesterone series, they were not discussed in detail in the main text. […] This unexpected result prompted further investigation using computational modeling, described in the following section. […] Higher pK a values were associated with faster and more complete oxime formation, likely due to enhanced H-bonding which could stabilize the reactive syn-conformer. […] For the heterocyclic pyrrolidine and angle-strained series (Figure C), the release rates closely matched the experimentally determined prodrug half-lives (Table ), which were shorter in human plasma than in PBS. […] Although both 20s and 20t are capable of adopting the reactive syn-rotamer, their self-immolation reactivity diverged due to differences in linker geometry. The cyclopropane in 20s induces angle strain that hinders nucleophilic attack, rendering the compound stable under both PBS and plasma conditions. […] This intriguing result warrants further investigation, with follow-up studies currently in progress. Finally, the nucleophilic capacity of the amine tethers in prodrugs 20w–20z were evaluated based on their ability to cyclize in plasma, as detailed in the Supporting Information Figure S13.
1.2 Stability in Plasma and PBS via LCMS
Procaine (positive control) was purchased from Sigma-Aldrich. HPLC grade MeCN, MeOH, H2O, and FA were purchased from Fischer Scientific. Human plasma (cat. No. […]- […]
0102242) were obtained from BIOIVT. DPBS 1X (no calcium, no magnesium, pH = 7.03) was purchased from Thermo Fischer Scientific. Stock solutions were prepared in 100% DMSO, and suitable dilutions of target analytes were prepared in 0.1% FA /MeCN for method development.
For PBS assay Gibco® Dulbecco’s phosphate-buffered saline (DPBS 1X, no calcium, no magnesium, pH = 7.03) was utilized. All experiments were performed in duplicate and results are presented as the average of two experimental replicates.
Procedure for Plasma Stability Assay
Test compounds and positive control (i.e. procaine) were dissolved in DMSO to make a 10 mM stock solution and subsequently diluted to 500 μM in 50% MeCN and PBS. […] The supernatant was transferred to an LC-MS vial and analyzed by LC/MS-MS. […]

The nature of series [4]: Stability in acetate buffer pH 5.0 at room temperature via HPLC (UV). Format: physicochemical. Put shortly:
as §1

Series [5] in a line: Plasma stability assay at 37 °C via LC-MS/MS, human plasma.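 For all read-outs here: prodrugs at 3 µM incubated in human plasma at 37 °C, intact prodrug quantified by LC-MS/MS over time, values are means of duplicate runs.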 The series is classed as in vitro ADME. Particulars: for t1/2 in human plasma at 37 °C (Tables S10-S13, S18): 3 µM; for half-life at 3 µM: human, plasma, read-out: Plasma, 37 °C t½ (Table S23) (converted).
Description: (§2) To address this, prodrug stability was further evaluated in human plasma at 37 °C using liquid chromatography–tandem mass spectrometry (LC-MS/MS). For direct comparison, a parallel screen was conducted in PBS under identical conditions (Table ). To prevent premature degradation prior to LC-MS/MS analysis, acetonitrile containing formic acid was used as a quenching solution to acidify and stabilize the prodrugs in vials. […] This limitation in detection, along with the need for a more uniform and broadly applicable assessment across all compounds, prompted us to monitor the formation of the parent oxime as an alternative readout.
(§3) Stability experiments in human plasma and PBS were performed via liquid chromatography-tandem mass spectrometry (LC-MS/MS) to determine and compare rate of cleavage of progesterone prodrugs as well as selected allopregnanolone prodrugs (3 µM) when incubated at 37 °C. All experiments were performed in duplicate and results are presented as the average of two experimental replicates.
A short description of series [6]: PBS stability assay at 37 °C via LC-MS/MS. Format: physicochemical. Particulars: for half-life at 3 µM: phosphate-buffered saline (DPBS), pH 7.03, PBS; for PBS, 37 °C %rem. at 2h (Table S23) / half-life at 3 µM: 37 °C.
Description: as §2, §3
[7] abbreviates: pH 5, aqueous buffer, thermodynamic from solid.
Setting [8] is: pH 7.03, DPBS pH 7.03, RT, 1 mg/mL, HPLC 254 nm, read-out: t1/2 in PBS buffer at RT (Tables S1-S4) (converted).
Setting [9] is: pH 7.03, PBS, rt, HPLC (UV), read-out: Half-life (t½) PBS rt (converted).
Where [10] appears, read: pH 7.03, PBS, rt, read-out: t½: PBS, rt (Table S23) (converted).
Setting [11] is: pH 5, acetate buffer pH 5.0, RT, 1 mg/mL, HPLC 254 nm, read-out: t1/2 in acetate buffer at RT (Tables S5-S8) (converted).
The mark [12] stands for this setting: pH 5, acetate buffer pH 5.0, rt, HPLC (UV), read-out: Half-life (t½) pH 5.0 rt (converted).
Where [13] appears, read: pH 5, acetate buffer pH 5.0, rt, read-out: t½: pH 5.0, rt (Table S23) (converted).
Setting [14] is: 3 µM, LC-MS/MS, read-out: t1/2 in PBS at 37 °C (Tables S14-S17) (converted).
Setting [15] is: read-out: PBS, 37 °C t½ (Table S23) (converted).

By solubility is commonly meant how much of the substance goes into solution per volume. For `CNCCN(CCN(C)C)C(=O)O/N=C(\C)[C@H]1CC[C@H]2[C@@H]3CCC4=CC(=O)CC[C@]4(C)[C@H]3CC[C@]12C` [20g], the solubility in series [1] (setting [7]) is under 10000 µg/mL. Also, the half-life at 1 mg/mL in series [2] (setting [8]) was 130.2 ± 1.2 min; in series [2] (setting [9]), 130 min; in series [2] (setting [10]), 130 min; in series [4] (setting [11]) it was 3.16 days; in series [4] (setting [12]) it was 3.16 days; in series [4] (setting [13]), 3.16 days. For the same compound, the “Formation/release of oxime 3 in human plasma, in words” value (shortened to “Formation/release”) in series [3] is given as “rapid, first-order release”.
As to `CNCCN(CCN1CCCC1)C(=O)O/N=C(\C)[C@H]1CC[C@H]2[C@@H]3CCC4=CC(=O)CC[C@]4(C)[C@H]3CC[C@]12C.O=C(O)C(F)(F)F` [20h], the “Solubility pH 5.0, rt” value in series [1] (sodium acetate buffer pH 5, rt, visual inspection) is reported as “degrades”. The same compound had a solubility in series [1] (setting [7]) of under 10000 µg/mL. Further, the half-life at 1 mg/mL in series [2] (setting [8]) was 434 ± 114 min; in series [2] (setting [9]), 434 min; in series [2] (setting [10]), 434 min; in series [4] (setting [11]), 4.38 days; in series [4] (setting [12]) it was 4.38 days; in series [4] (setting [13]) it was 4.38 days. Also, in series [3], the “Formation/release” value is given as “rapid, first-order release”.
In turn, `C/C(=N\OC(=O)N(C)CC[C@@H]1CCCN1)[C@H]1CC[C@H]2[C@@H]3CCC4=CC(=O)CC[C@]4(C)[C@H]3CC[C@]12C.O=C(O)C(F)(F)F` [20n] yielded a solubility in series [1] (setting [7]) of over 10000 µg/mL. Also, the “t1/2 in human plasma at 37 °C (Tables S10-S13, S18)” value in series [5] (LC-MS/MS) was “stable”. In addition, in series [5], the “Plasma, 37 °C %rem. at 2h (Table S23)” value is on record as “stable”. Also, the half-life at 3 µM is over 1440 min in series [5], 1590 min in series [6] (setting [14]) and 1590 min in series [6] (setting [15]). Also, the “PBS, 37 °C %rem. at 2h (Table S23)” value in series [6] (PBS) was determined as 77%. Moreover, the half-life at 1 mg/mL in series [2] (setting [8]) is over 1440 min; in series [2] (setting [10]) it was over 1440 min; in series [4] (setting [11]) it was over 7 days; in series [4] (setting [13]), over 7 days. Also, the “Formation/release” value in series [3] is “low levels of oxime”.
`C/C(=N\OC(=O)N(C)C[C@@H]1CC(F)(F)CN1)[C@H]1CC[C@H]2[C@@H]3CCC4=CC(=O)CC[C@]4(C)[C@H]3CC[C@]12C` [20r]: in series [1] (pH 5), the solubility was under 10000 µg/mL. In addition, in series [5] (LC-MS/MS), the “t1/2 in human plasma at 37 °C (Tables S10-S13, S18)” value is recorded as “stable” and the “Half-life (t½) Plasma 37°C” value was “stable”. Moreover, in series [5], the “Plasma, 37 °C %rem. at 2h (Table S23)” value was “stable” and the half-life at 3 µM is over 1440 min. Besides, in series [6] (PBS), the “Prodrug stability / self-immolation in buffer, in words” value is on record as “highly stable, noncleaving prodrug” and the “PBS, 37 °C %rem. at 2h (Table S23)” value was determined as 72%. Also, in series [6] (setting [14]), the half-life at 3 µM was 296 min. Moreover, the half-life at 3 µM in series [6] (LC-MS/MS, read-out: Half-life (t½) PBS 37°C (converted)) is 296 min. Besides, in series [6] (setting [15]), the half-life at 3 µM is 296 min. In series [3], the “Formation/release” value is given as “low levels of oxime”.
